Patent US20170189504A1, “NOVEL PEPTIDES AND COMBINATION OF PEPTIDES FOR USE IN IMMUNOTHERAPY AGAINST VARIOUS CANCERS” (immatics biotechnologies GmbH, priority 2015, published 2017)

Assays:
CD8+ T cells = experiment: In vitro immunogenicity: T-cell priming with aAPCs loaded with peptide/MHC complexes and anti-CD28 antibody, pMHC multimer readout (Tables 19A, 19B); type: cell-based, human; settings: for Wells positive [%]: in vitro immunogenicity of HLA class I peptides, pMHC multimer readout after priming of CD8+ T cells; for Share of positive wells (percent class): in vitro immunogenicity, healthy donors, three stimulation cycles
Procedure: In an aspect, the peptides are pre-screened for immunogenicity before being included in the warehouse. By way of example, and not limitation, the immunogenicity of the peptides included in the warehouse is determined by a method comprising in vitro T-cell priming through repeated stimulations of CD8+ T cells from healthy donors with artificial antigen presenting cells loaded with peptide/MHC complexes and anti-CD28 antibody.
In order to obtain information regarding the immunogenicity of the TUMAPs of the present invention, the inventors performed investigations using an in vitro T-cell priming assay based on repeated stimulations of CD8+ T cells with artificial antigen presenting cells (aAPCs) loaded with peptide/MHC complexes and anti-CD28 antibody.
In order to perform in vitro stimulations by artificial antigen presenting cells loaded with peptide-MHC complex (pMHC) and anti-CD28 antibody, the inventors first isolated CD8+ T cells from fresh HLA-A*02 leukapheresis products via positive selection using CD8 microbeads (Miltenyi Biotec, Bergisch-Gladbach, Germany) of healthy donors obtained from the University clinics Mannheim, Germany, after informed consent.
PBMCs and isolated CD8+ lymphocytes were incubated in T-cell medium (TCM) until use consisting of RPMI-Glutamax (Invitrogen, Karlsruhe, Germany) supplemented with 10% heat inactivated human AB serum (PAN-Biotech, Aidenbach, Germany), 100 U/ml Penicillin/100 μg/ml Streptomycin (Cambrex, Cologne, Germany), 1 mM sodium pyruvate (CC Pro, Oberdorla, Germany), 20 μg/ml Gentamycin (Cambrex). 2.5 ng/ml IL7 (PromoCell, Heidelberg, Germany) and 10 U/ml IL-2 (Novartis Pharma, Nurnberg, Germany) were also added to the TCM at this step.
Generation of pMHC/anti-CD28 coated beads, T-cell stimulations and readout was performed in a highly defined in vitro system using four different pMHC molecules per stimulation condition and 8 different pMHC molecules per readout condition.
The purified co-stimulatory mouse IgG2a anti human CD28 Ab 9.3 (Jung et al., 1987) was chemically biotinylated using Sulfo-N-hydroxysuccinimidobiotin as recommended by the manufacturer (Perbio, Bonn, Germany). Beads used were 5.6 μm diameter streptavidin coated polystyrene particles (Bangs Laboratories, Illinois, USA).
pMHC used for positive and negative control stimulations were A*0201/MLA-001 (peptide […] (SEQ ID NO. 303) from modified Melan-A/MART-1) and A*0201/DDX5-001 ([…] from DDX5, SEQ ID NO. 304), respectively.
800.000 beads/200 μl were coated in 96-well plates in the presence of 4×12.5 ng different biotin-pMHC, washed and 600 ng biotin anti-CD28 were added subsequently in a volume of 200 μl. Stimulations were initiated in 96-well plates by co-incubating […] CD8+ T cells with 2×10^5 washed coated beads in 200 μl TCM supplemented with 5 ng/ml IL-12 (PromoCell) for 3 days at 37° C. Half of the medium was then exchanged by fresh TCM supplemented with 80 U/ml IL-2 and incubating was continued for 4 days at 37° C. This stimulation cycle was performed for a total of three times. For the pMHC multimer readout using 8 different pMHC molecules per condition, a two-dimensional combinatorial coding approach was used as previously described (Andersen et al., 2012) with minor modifications encompassing coupling to 5 different fluorochromes. Finally, multimeric analyses were performed by staining the cells with Live/dead near IR dye (Invitrogen, Karlsruhe, Germany), CD8-FITC antibody clone SK1 (BD, Heidelberg, Germany) and fluorescent pMHC multimers. For analysis, a BD LSRII SORP cytometer equipped with appropriate lasers and filters was used. Peptide specific cells were calculated as percentage of total CD8+ cells. Evaluation of multimeric analysis was done using the FlowJo software (Tree Star, Oreg., USA). In vitro priming of specific multimer+ CD8+ lymphocytes was detected by comparing to negative control stimulations.

HLA-A*02 = experiment: MHC binding assay, UV-ligand exchange with β2m ELISA, HLA-A*02 (Table 20); set-up: species or system human; settings: binding to HLA-A*02 ranged by peptide exchange yield (UV-ligand exchange, β2m ELISA)
In short: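 Peptide–MHC complexes made by UV-ligand exchange of a UV-cleavable peptide, diluted 100-fold and captured on streptavidin plates. Stabilized complexes detected by HRP anti-β2m ELISA (1 h, 37° C, A450). Exchange yield derived against refolded HLA-A*02:01/MLA-001 monomer standards (15-500 ng/ml).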

Peptide exchange (HLA-A*02) | Substance | Wells positive [%] (CD8+ T cells) | Share of positive wells (percent class) (CD8+ T cells)
++++ (≧75% = ++++) | 14 (ILAKDLFEI; listed as Homo sapiens) [compound 14] | ++ (20%-49% = ++) | –
+++ (50%-75% = +++) | 90 (FLQDLEQRL; listed as Homo sapiens) [compound 90] | + (<20% = +) | –
+++ (50%-75% = +++) | 18 (ILLDLTDNRL; listed as Homo sapiens) [compound 18] | + (<20% = +) | –
– | 296 (TYVDSSHTI; listed as Homo sapiens) [compound 296] | – | + (<20% = +)
++ (20%-49% = ++) | 230 (KLQNIMMLL; listed as Homo sapiens) [compound 230] | ++++ (≧70% = ++++) | –
– | 292 (GMMTAILGV; listed as Homo sapiens) [compound 292] | – | + (<20% = +)
++++ (≧75% = ++++) | 248 (YLDRFLAGV; listed as Homo sapiens) [compound 248] | ++ (20%-49% = ++) | –
+++ (50%-75% = +++) | 29 (YLLDPSITL; listed as Homo sapiens) [compound 29] | + (<20% = +) | –
+++ (50%-75% = +++) | 150 (VLYDRPLKI; listed as Homo sapiens) [compound 150] | ++ (20%-49% = ++) | –
+++ (50%-75% = +++) | 235 (KIIDFLSAL; listed as Homo sapiens) [compound 235] | +++ (50%-69% = +++) | –
+++ (50%-75% = +++) | 20 (GLSQITNQL; listed as Homo sapiens) [compound 20] | ++ (20%-49% = ++) | –
– | 300 (AYVLRLETL; listed as Homo sapiens) [compound 300] | – | + (<20% = +)
+++ (50%-75% = +++) | 23 (SLFSDEFKV; listed as Homo sapiens) [compound 23] | ++++ (≧70% = ++++) | –
– | 291 (KLDETGNSL; listed as Homo sapiens) [compound 291] | – | + (<20% = +)
++++ (≧75% = ++++) | 92 (GLLFSLRSV; listed as Homo sapiens) [compound 92] | ++ (20%-49% = ++) | –
– | 293 (FLVDGSWSI; listed as Homo sapiens) [compound 293] | – | + (<20% = +)
+++ (50%-75% = +++) | 7 (ILDHEVPSL; listed as Homo sapiens) [compound 7] | ++ (20%-49% = ++) | –
++++ (≧75% = ++++) | 1 (LLYPEPWSV; listed as Homo sapiens) [compound 1] | ++ (20%-49% = ++) | –
+++ (50%-75% = +++) | 31 (TITETTVEV; listed as Homo sapiens) [compound 31] | + (<20% = +) | –
+++ (50%-75% = +++) | 35 (FLLPFSTVYL; listed as Homo sapiens) [compound 35] | + (<20% = +) | –
+++ (50%-75% = +++) | 247 (ALYEGYATV; listed as Homo sapiens) [compound 247] | ++ (20%-49% = ++) | –

Peptide exchange (HLA-A*02) | Substance | Wells positive [%] (CD8+ T cells) | Share of positive wells (percent class) (CD8+ T cells)
++++ (≧75% = ++++) | 229 (AILAHLNTV; listed as Homo sapiens) [compound 229] | ++ (20%-49% = ++) | –
+++ (50%-75% = +++) | 26 (ALQEELTEL; listed as Homo sapiens) [compound 26] | + (<20% = +) | –
+++ (50%-75% = +++) | 144 (ALLAFFPGL; listed as Homo sapiens) [compound 144] | +++ (50%-69% = +++) | –
+++ (50%-75% = +++) | 27 (RLMEENWNA; listed as Homo sapiens) [compound 27] | +++ (50%-69% = +++) | –
+++ (50%-75% = +++) | 149 (ILNTHITEL; listed as Homo sapiens) [compound 149] | + (<20% = +) | –
++ (20%-49% = ++) | 151 (SVLDSTAKV; listed as Homo sapiens) [compound 151] | ++ (20%-49% = ++) | –
+++ (50%-75% = +++) | 11 (ALSPSYLTV; listed as Homo sapiens) [compound 11] | ++ (20%-49% = ++) | –
+++ (50%-75% = +++) | 138 (ALLAKILQI; listed as Homo sapiens) [compound 138] | ++ (20%-49% = ++) | –
– | 298 (RYLEGTSCI; listed as Homo sapiens) [compound 298] | – | + (<20% = +)
++++ (≧75% = ++++) | 249 (GLCERLVSL; listed as Homo sapiens) [compound 249] | + (<20% = +) | –
++++ (≧75% = ++++) | 12 (GLLPLLHRA; listed as Homo sapiens) [compound 12] | ++++ (≧70% = ++++) | –
– | 301 (AYKPGALTF; listed as Homo sapiens) [compound 301] | – | + (<20% = +)
+++ (50%-75% = +++) | 251 (ALSVLRLAL; listed as Homo sapiens) [compound 251] | ++ (20%-49% = ++) | –
– | 290 (KIVDFSYSV; listed as Homo sapiens) [compound 290] | – | ++ (20%-49% = ++)
+++ (50%-75% = +++) | 6 (ALFDSLRHV; listed as Homo sapiens) [compound 6] | ++ (20%-49% = ++) | –
+++ (50%-75% = +++) | 5 (GIVAHIQEV; listed as Homo sapiens) [compound 5] | + (<20% = +) | –
+++ (50%-75% = +++) | 141 (FLDKVLVAA; listed as Homo sapiens) [compound 141] | + (<20% = +) | –
+++ (50%-75% = +++) | 232 (KIFPAALQLV; listed as Homo sapiens) [compound 232] | ++ (20%-49% = ++) | –
++++ (≧75% = ++++) | 4 (KLMPGTYTL; listed as Homo sapiens) [compound 4] | + (<20% = +) | –
++ (20%-49% = ++) | 96 (LLVSHLYLV; listed as Homo sapiens) [compound 96] | ++ (20%-49% = ++) | –
+++ (50%-75% = +++) | 233 (HLFDAFVSV; listed as Homo sapiens) [compound 233] | ++ (20%-49% = ++) | –
